The text below walks through data of patent US8067447B2, “Modulators of glucocorticoid receptor, AP-1, and/or NF-κB activity and use thereof” (Bristol-Myers Squibb Company, priority 2006, dated 2011).

Test [1] addresses T1, human glucocorticoid receptor (Homo sapiens, UniProt P04150).
T1 construct: purified human recombinant full-length glucocorticoid receptor (2 nM); purchased Invitrogen Part #2893
T1 sequence (P04150 1-777): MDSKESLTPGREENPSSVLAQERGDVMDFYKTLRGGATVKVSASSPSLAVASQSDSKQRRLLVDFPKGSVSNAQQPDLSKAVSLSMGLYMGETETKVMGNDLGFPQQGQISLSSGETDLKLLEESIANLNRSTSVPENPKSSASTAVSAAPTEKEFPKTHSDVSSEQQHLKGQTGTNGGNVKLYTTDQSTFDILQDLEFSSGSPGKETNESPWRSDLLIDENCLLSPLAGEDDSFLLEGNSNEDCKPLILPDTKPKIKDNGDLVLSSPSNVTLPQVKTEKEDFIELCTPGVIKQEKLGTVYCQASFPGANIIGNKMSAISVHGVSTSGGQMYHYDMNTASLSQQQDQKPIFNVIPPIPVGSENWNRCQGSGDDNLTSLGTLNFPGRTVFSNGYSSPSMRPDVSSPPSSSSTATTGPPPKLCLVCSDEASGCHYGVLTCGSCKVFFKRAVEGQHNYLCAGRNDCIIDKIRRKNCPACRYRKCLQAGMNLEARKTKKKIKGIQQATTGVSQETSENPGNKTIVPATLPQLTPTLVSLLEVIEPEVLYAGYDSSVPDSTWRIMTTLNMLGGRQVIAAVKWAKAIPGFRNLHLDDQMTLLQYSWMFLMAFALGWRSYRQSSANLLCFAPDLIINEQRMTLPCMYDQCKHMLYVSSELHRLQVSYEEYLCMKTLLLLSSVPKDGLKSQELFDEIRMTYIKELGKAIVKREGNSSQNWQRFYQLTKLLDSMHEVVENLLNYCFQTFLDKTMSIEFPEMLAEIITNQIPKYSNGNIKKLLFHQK
Briefly: Glucocorticoid Receptor Binding Assay (I), fluorescence polarization competitor kit (Fluormone GS Red). As to conditions: purified human recombinant full-length GR 2 nM, 1 nM Fluormone GS Red, FP. The method, then:
Briefly, purified human recombinant full-length glucocorticoid receptor (2 nM) was mixed with fluorescently labeled glucocorticoid (1 nM Fluormone GS Red) in the presence or absence of test compound. After two hour incubation at room temperature in the dark, the fluorescence polarization (FP) of the samples was measured. […] Test compounds were analyzed in the concentration range from 8.5E-05 μM to 5 μM.
(Fluorescence polarisation rises when a labelled molecule tumbles more slowly, as on binding a larger partner.)

Test [2] relates to AP-1 induced transcriptional activity. As to the kind of experiment: Cellular Transrepressional Assay (AP-1 luciferase reporter in A549 cells, PMA-activated). The format is cell-based. As to conditions: A549 cells with 7x AP-1 luciferase reporter, 10 ng/ml PMA, read-out: AP-1 (EC50, nM) (Cellular Transrepression Assay). As for the experimental part:
To measure the ability of test molecules to inhibit AP-1 induced transcriptional activity an A549 cell was utilized which was stably transfected with a plasmid containing 7× AP-1 DNA binding sites (pAP-1-Luc plasmid, Stratagene Co. La Jolla, Calif.) followed by the gene for luciferase. Cells were activated with 10 ng/ml of […] (PMA) plus or minus test molecules for 7 hours. After 7 hours a luciferase reagent was added to measure luciferase enzymatic activity in the cell. After a 10 minute incubation of luciferase reagent with cells, luminescence was measured in a TopCount luminescence counter. Repression of AP-1 activity was calculated as the percentage decrease in the signal induced by PMA alone. Test molecules were analyzed in the concentration range from 0.1 nM to 40 μM. EC50s were determined by using standard curve fitting methods such as Excel fit (Microsoft Co.).
(Reporter assays use an easily measured gene product as a stand-in for the process of interest.)

[3] abbreviates: read-out: GR (Ki, nM) (GR Binding Assay (I)).

Where two headings read alike, the source gives them in different places.

In the case of `COCCCn1ncc2cc(C(c3ccccc3)C(C)(C)C(=O)Nc3nncs3)ccc21` (centres unmarked) [Example 71], in test [1] (setting [3]), the Ki came to 28 nM. In addition, the EC50 in test [2] (Homo sapiens, A549, 7 h) is above 10000 nM.
For the compound `CC(C)(C(=O)Nc1nncs1)C(c1ccccc1)c1ccc2c(cnn2Cc2ccccc2)c1` (centres unmarked) [Example 72, 3-(1-benzyl-1H-indazol-5-yl)-2,2-dimethyl-3-phenyl-N-(1,3,4-thiadiazol-2-yl)propanamide], in test [1] (setting [3]), the Ki was found to be 14 nM. In addition, the EC50 in test [2] (Homo sapiens, A549, 7 h) came to 1930 nM.
For `CC(C)(C(=O)Nc1nncs1)C(c1ccccc1)c1ccc2nn(Cc3ccccc3)cc2c1` (centres unmarked) [Example 73, 3-(2-benzyl-2H-indazol-5-yl)-2,2-dimethyl-3-phenyl-N-(1,3,4-thiadiazol-2-yl)propanamide] the same measures were 46 nM and above 10000 nM.
With `CC(C)(C(=O)Nc1nncs1)C(c1ccccc1)c1ccc2c(cnn2CCc2ccccc2)c1` (centres unmarked) [Example 74, 2,2-dimethyl-3-(1-phenethyl-1H-indazol-5-yl)-3-phenyl-N-(1,3,4-thiadiazol-2-yl)propanamide], in test [1] (setting [3]), the Ki stood at 152 nM. Besides, in test [2] (Homo sapiens, A549, 7 h), the EC50 is above 10000 nM.
For `CC(C)(C(=O)Nc1nncs1)C(c1ccccc1)c1ccc2c(cnn2CCCO)c1` (centres unmarked) [Example 75, 3-(1-(3-hydroxypropyl)-1H-indazol-5-yl)-2,2-dimethyl-3-phenyl-N-(1,3,4-thiadiazol-2-yl)propanamide] the same measures were 17 nM and 1020 nM.
For `CC(C)(C(=O)Nc1nncs1)C(c1ccccc1)c1ccc2c(cnn2CCCCO)c1` (centres unmarked) [Example 76, 3-(1-(4-hydroxybutyl)-1H-indazol-5-yl)-2,2-dimethyl-3-phenyl-N-(1,3,4-thiadiazol-2-yl)propanamide] the same measures were 9.3 nM and 267 nM.
Take `CC(C)(C(=O)Nc1nncs1)C(c1ccccc1)c1ccc2nn(CCCCO)cc2c1` (centres unmarked) [Example 77, 3-(2-(4-hydroxybutyl)-2H-indazol-5-yl)-2,2-dimethyl-3-phenyl-N-(1,3,4-thiadiazol-2-yl)propanamide]: in test [1] (setting [3]), the Ki was 23 nM. Also, the EC50 in test [2] (Homo sapiens, A549, 7 h) was 951 nM.
The matching figures for `CC(C)(C(=O)Nc1nccs1)C(c1ccccc1)c1ccc2c(cnn2-c2ccccn2)c1` (centres unmarked) [Example 79, 2,2-dimethyl-3-phenyl-3-(1-(pyridin-2-yl)-1H-indazol-5-yl)-N-(thiazol-2-yl)propanamide]: 10 nM and 2480 nM.
The matching figures for `CC(C)(C(=O)Nc1nncs1)C(c1ccccc1)c1ccc2c(cnn2-c2ccccn2)c1` (centres unmarked) [Example 80, 2,2-dimethyl-3-phenyl-3-(1-(pyridin-2-yl)-1H-indazol-5-yl)-N-(1,3,4-thiadiazol-2-yl)propanamide]: 8.1 nM and 127 nM.
For `CC(C)(C(=O)Nc1nccs1)C(c1ccccc1)c1ccc2c(cnn2-c2ccncc2)c1` (centres unmarked) [Example 81, 2,2-dimethyl-3-phenyl-3-(1-(pyridin-4-yl)-1H-indazol-5-yl)-N-(thiazol-2-yl)propanamide] the same measures were 11 nM and 1290 nM.
In the case of `CC(C)(C(=O)Nc1nncs1)C(c1ccccc1)c1ccc2c(cnn2-c2ccncc2)c1` (centres unmarked) [Example 82, 2,2-dimethyl-3-phenyl-3-(1-(pyridin-4-yl)-1H-indazol-5-yl)-N-(1,3,4-thiadiazol-2-yl)propanamide], the Ki in test [1] (setting [3]) amounted to 20 nM. Besides, the EC50 in test [2] (Homo sapiens, A549, 7 h) amounted to 491 nM.
For `COc1ccc(-n2ncc3cc(C(c4ccccc4)C(C)(C)C(=O)Nc4nncs4)ccc32)cc1` (centres unmarked) [Example 83, 3-(1-(4-methoxyphenyl)-1H-indazol-5-yl)-2,2-dimethyl-3-phenyl-N-(1,3,4-thiadiazol-2-yl)propanamide] the same measures were 8.8 nM and 230 nM.
For `CC(C)(C(=O)Nc1nncs1)C(c1ccccc1)c1ccc2c(cnn2-c2ccc(O)cc2)c1` (centres unmarked) [Example 84, 3-(1-(4-hydroxyphenyl)-1H-indazol-5-yl)-2,2-dimethyl-3-phenyl-N-(1,3,4-thiadiazol-2-yl)propanamide], the Ki in test [1] (setting [3]) stood at 7.2 nM. For the same compound, the EC50 in test [2] (Homo sapiens, A549, 7 h) turned out to be 306 nM.
As to `CC(C)(C(=O)Nc1nccs1)C(c1ccccc1)c1ccc2c(cnn2-c2cccnc2)c1` (centres unmarked) [Example 85, 2,2-dimethyl-3-phenyl-3-(1-(pyridin-3-yl)-1H-indazol-5-yl)-N-(thiazol-2-yl)propanamide], in test [1] (GR (Ki, nM) (GR Binding Assay (I))), the Ki was 7.8 nM. Besides, the EC50 in test [2] (Homo sapiens, A549, 7 h) worked out at 40 nM.
With `CC(C)(C(=O)Nc1nncs1)C(c1ccccc1)c1ccc2c(cnn2-c2ccccc2)c1` (centres unmarked) [Example 87, 2,2-dimethyl-3-phenyl-3-(1-phenyl-1H-indazol-5-yl)-N-(1,3,4-thiadiazol-2-yl)propanamide], the Ki in test [1] (setting [3]) came to 5 nM. In addition, the EC50 in test [2] (Homo sapiens, A549, 7 h) came out at 20 nM.
Turning to `CC(C)(C(=O)Nc1nncs1)C(c1ccccc1)c1ccc2c(cnn2-c2ccc(C(F)(F)F)cc2)c1` (centres unmarked) [Example 90, 2,2-dimethyl-3-phenyl-N-(1,3,4-thiadiazol-2-yl)-3-(1-(4-(trifluoro-methyl)phenyl)-1H-indazol-5-yl)propanamide], the Ki in test [1] (setting [3]) worked out at 85 nM. Further, the EC50 in test [2] (Homo sapiens, A549, 7 h) was above 10000 nM.
The matching figures for `CC(C)(C(=O)Nc1nncs1)C(c1ccccc1)c1ccc2c(cnn2-c2ccc(Br)cc2)c1` (centres unmarked) [Example 91, 3-(1-(4-bromophenyl)-1H-indazol-5-yl)-2,2-dimethyl-3-phenyl-N-(1,3,4-thiadiazol-2-yl)propanamide]: 29 nM and 956 nM.
The matching figures for `CC(C)(C(=O)Nc1nncs1)C(c1ccccc1)c1ccc2c(cnn2-c2ccc(F)cc2C(F)(F)F)c1` (centres unmarked) [Example 92, 3-(1-(4-fluoro-2-(trifluoromethyl)phenyl)-1H-indazol-5-yl)-2,2-dimethyl-3-phenyl-N-(1,3,4-thiadiazol-2-yl)proponamide]: 110 nM and above 10000 nM.
As to `CC(C)(C(=O)Nc1nncs1)C(c1ccccc1)c1ccc2c(cnn2-c2ccc(Cl)cc2)c1` (centres unmarked) [Example 93, 3-(1-(4-chlorophenyl)-1H-indazol-5-yl)-2,2-dimethyl-3-phenyl-N-(1,3,4-thiadiazol-2-yl)propanamide], in test [1] (setting [3]), the Ki was determined as 18 nM. In addition, the EC50 in test [2] (Homo sapiens, A549, 7 h) came to 32 nM.
Take `O=C(Nc1nccs1)C1CC1(c1ccccc1)c1ccc2c(cnn2-c2ccc(F)cc2)c1` (stereo not drawn) [Example 98, Trans-2-(1-(4-fluorophenyl)-1H-indazol-5-yl)-2-phenyl-N-(thiazol-2-yl)cyclopropanecarboxamide]: the Ki in test [1] (setting [3]) came to 15 nM. Also, the EC50 in test [2] (7 hours) is 34 nM.
`O=C(Nc1nccs1)C1CC1c1ccc2c(cnn2-c2ccc(F)cc2)c1` (centres unmarked) [Example 103, 2-(1-(4-Fluorophenyl)-1H-indazol-5-yl)-N-(thiazol-2-yl)cyclopropanecarboxamide]: in test [1] (setting [3]), the Ki stood at 248 nM. For the same compound, the EC50 in test [2] (Homo sapiens, A549, 7 h) was above 10000 nM.
The matching figures for `CC(C)(C(=O)Nc1nccs1)C(c1ccccc1)c1ccc2[nH]ccc2c1` (centres unmarked) [Example 107, 3-(1H-Indol-5-yl)-2,2-dimethyl-3-phenyl-N-(thiazol-2-yl)propanamide]: 7.8 nM and 193 nM.
For `CC(C)(C(=O)Nc1nccs1)C(c1ccccc1)c1ccc2[nH]cc(C#N)c2c1` (centres unmarked) [Example 108, 3-(3-Cyano-1H-indol-5-yl)-2,2-dimethyl-3-phenyl-N-(thiazol-2-yl)propanamide] the same measures were 6.6 nM and 1200 nM.
Turning to `CC(C)(C(=O)Nc1nccs1)C(c1ccccc1)c1ccc2[nH]cc(C=O)c2c1` (centres unmarked) [Example 109, 3-(3-Formyl-1H-indol-5-yl)-2,2-dimethyl-3-phenyl-N-(thiazol-2-yl)propanamide], the Ki in test [1] (setting [3]) is 59 nM. Further, in test [2] (Homo sapiens, A549, 7 h), the concentration for a half-maximal effect (EC50) was above 10000 nM.
For `CC(C)(C(=O)Nc1nccs1)C(c1ccccc1)c1ccc2c(ccn2-c2ccc(F)cc2)c1` (centres unmarked) [Example 110, 3-(1-(4-Fluorophenyl)-1H-indol-5-yl)-2,2-dimethyl-3-phenyl-N-(thiazol-2-yl)propanamide] the same measures were 13 nM and 220 nM.

A word on the Ki: it is the dissociation constant of the complex between target and ligand, obtained from inhibition or displacement. As a reminder, the EC50 is the midpoint of the concentration-response curve.
